Data reported in US20220257635A1, “INJECTABLE NUTRITIONAL SUPPLEMENT” (CHEMVET AUSTRALIA PTY LTD, priority 2019, published 2022).

Experiment: Stability storage of the Comparative Example 1 formulation at 5° C. and 40° C. (75% RH), vitamin B12 analysed
Type: physicochemical
Details: in formulation of Table 2; for Vitamin B12 T = 1 month (mg/mL) 5° C.: 1 month at 5° C.; for Vitamin B12 T = 1 month (mg/mL) 40° C.: 1 month at 40° C. (75% RH); for Vitamin B12 T = 0 (mg/mL) 5° C.: T = 0, 5° C. sample; for Vitamin B12 T = 0 (mg/mL) 40° C.: T = 0, 40° C. (75% RH) sample
Protocol: To the formulation of Table 1, water-soluble disodium Copper EDTA and disodium Zinc EDTA, were successfully added at the rate of 107 g/L and 285 g/L respectively and then topped up with water to the required volume.
This formulation was sent to Chemical Analysis, and analysed at 0 time and placed on stability storage at 5° C. and 40° C. (75% RH).

| Substance | Vitamin B12 T = 1 month (mg/mL) 5° C. [mg/mL] | Vitamin B12 T = 1 month (mg/mL) 40° C. [mg/mL] | Vitamin B12 T = 0 (mg/mL) 5° C. [mg/mL] | Vitamin B12 T = 0 (mg/mL) 40° C. [mg/mL] |
| --- | --- | --- | --- | --- |
| Cyanocobalamin | 0.23 | 0.14 | 0.24 | 0.24 |
| Hydroxocobalamin Acetate | 0.26 | 0.03 | 0.49 | 0.49 |
